Values joined by “and” are separate entries in the source; they are usually repeats but may differ in a detail not shown here. Identical values can stand only once.
Experiments:
[1] = system: healthy male Wistar rats; assay: Series 2: BMOV cumulative infusion during adrenaline (or saline) infusion, blood glucose; assay type: in vivo, rat
Protocol: Glucose levels were measured at t=0, 120, 140, 160, 180 and 200 min.
Blood glucose levels were measured at each time point in duplicates by directly dripping blood onto DCont TREND test strips (77 Elektronika, Budapest, Hungary). […] Blood samples were centrifuged at 4.000 rpm at 4° C. for 15 min. The prepared, separated samples derived from the centrifuged plasma (total volume 200 μl) were kept at −70° C. until shipment.

[2] = system: healthy male Wistar rats; assay: Example 2: BMOV pre-treatment before adrenaline-induced stress hyperglycemia, blood glucose; assay type: in vivo, rat
Protocol: See Table 8 and Table 9 for further details.
Measurement of glucose levels was performed by DCont TREND glucometer. DCont TREND test strips (77 Elektronika, http://www.regolymedical.hu/en/measuring-tools-and-surgicalinstruments/vercukormero-d-cont-trend.html), in duplicate in order to determine blood glucose levels. See Table 9 for the blood sampling regime during the course of the experiment.

[3] = Saline + BMOV group, 0 min, before saline and BMOV
[4] = Saline + BMOV group, 120 min of saline, before BMOV dose 1
[5] = Saline + BMOV group, 140 min, after BMOV 1 (0.34 mg/kg iv over 20 min)
[6] = Saline + BMOV group, 180 min, after BMOV 3 (2.89 mg/kg, cumulative)
[7] = Saline + BMOV group, 200 min, after BMOV 4 (8.50 mg/kg, cumulative)
[8] = Tonogen + BMOV group (adrenaline 1 μg/kg/min), 0 min, before adrenaline and BMOV
[9] = Tonogen + BMOV group, 120 min of adrenaline, before BMOV dose 1
[10] = Tonogen + 1x BMOV (15 mg/kg ip 3 h before adrenaline 0.3 microgram/kg/min), 0 min
[11] = Tonogen + 1x BMOV (15 mg/kg ip 3 h before adrenaline), 30 min
[12] = Tonogen + 1x BMOV (15 mg/kg ip 3 h before adrenaline), 60 min
[13] = Tonogen + 1x BMOV (15 mg/kg ip 3 h before adrenaline), 90 min
[14] = Tonogen + 1x BMOV (15 mg/kg ip 3 h before adrenaline), 120 min
[15] = Tonogen + 1x BMOV (15 mg/kg ip 3 h before adrenaline), 150 min
[16] = Tonogen + 1x BMOV (15 mg/kg ip 3 h before adrenaline), 180 min
[17] = Tonogen + 2x BMOV (15 mg/kg ip 16-24 h and 3 h before adrenaline 0.3 microgram/kg/min), 0 min
[18] = Tonogen + 2x BMOV (15 mg/kg ip 16-24 h and 3 h before adrenaline), 30 min
[19] = Tonogen + 2x BMOV (15 mg/kg ip 16-24 h and 3 h before adrenaline), 60 min
[20] = Tonogen + 2x BMOV (15 mg/kg ip 16-24 h and 3 h before adrenaline), 90 min
[21] = Tonogen + 2x BMOV (15 mg/kg ip 16-24 h and 3 h before adrenaline), 120 min
[22] = Tonogen + 2x BMOV (15 mg/kg ip 16-24 h and 3 h before adrenaline), 150 min
[23] = Tonogen + 2x BMOV (15 mg/kg ip 16-24 h and 3 h before adrenaline), 180 min
[24] = two doses of BMOV at different time points before stress

SMILES: Cc1occc(=O)c1[O-].Cc1occc(=O)c1[O-].[O]=[V+2] [BMOV, Bis(maltolato)oxovanadium]
- Effect on the increase of the glucose level ([1]; BMOV administered after the start of and during continued stress (adrenaline infusion)): lowers the extent of the increase of the glucose level
- Blood glucose level, individual animal in duplicate [1, 3]: 4.7 mM/l and 4.8 mM/l
- Blood glucose level, mean [1, 3]: 4.75 mM/l
- Blood glucose level, individual animal in duplicate [1, 4]: 5.7 mM/l and 5.3 mM/l
- Blood glucose level, mean [1, 4]: 5.50 mM/l
- Blood glucose level, individual animal in duplicate [1, 5]: 6.3 mM/l
- Blood glucose level, mean [1, 5]: 6.30 mM/l
- Blood glucose level, mean ([1]; Saline + BMOV group, 160 min, after BMOV 2 (1.02 mg/kg, cumulative)): 6.60 mM/l
- Blood glucose level, individual animal in duplicate ([1]; Saline + BMOV group, 160 min, after BMOV 2 (1.02 mg/kg, cumulative), 1.02 mg/kg): 6.5 mM/l and 6.7 mM/l
- Blood glucose level, individual animal in duplicate [1, 6]: 5.9 mM/l
- Blood glucose level, mean [1, 6]: 5.90 mM/l
- Blood glucose level, individual animal in duplicate [1, 7]: 3.8 mM/l
- Blood glucose level, mean [1, 7]: 3.80 mM/l
- Blood glucose level, individual animals in duplicate [1, 8]: 8.4 mM/l and 7.8 mM/l and 6.0 mM/l (2×)
- Blood glucose level, mean [1, 8]: 7.05 mM/l
- Blood glucose level, individual animals in duplicate [1, 9]: 16.4 mM/l and 16.5 mM/l and 11.7 mM/l and 11.2 mM/l
- Blood glucose level, mean [1, 9]: 13.95 mM/l
- Blood glucose level, mean ([1]; Tonogen + BMOV group, 140 min, after BMOV 1 (0.34 mg/kg iv over 20 min)): 15.55 mM/l
- Blood glucose level, individual animals in duplicate ([1]; Tonogen + BMOV group, 140 min, after BMOV 1 (0.34 mg/kg iv over 20 min), 0.34 mg/kg): 17.9 mM/l and 17.5 mM/l and 13.5 mM/l and 13.3 mM/l
- Blood glucose level, mean ([1]; Tonogen + BMOV group, 160 min, after BMOV 2 (1.02 mg/kg, cumulative)): 15.18 mM/l
- Blood glucose level, individual animals in duplicate ([1]; Tonogen + BMOV group, 160 min, after BMOV 2 (1.02 mg/kg, cumulative), 1.02 mg/kg): 14.6 mM/l and 14.5 mM/l and 15.7 mM/l and 15.9 mM/l
- Blood glucose level, mean ([1]; Tonogen + BMOV group, 180 min, after BMOV 3 (2.89 mg/kg, cumulative)): 11.03 mM/l
- Blood glucose level, individual animals in duplicate ([1]; Tonogen + BMOV group, 180 min, after BMOV 3 (2.89 mg/kg, cumulative), 2.89 mg/kg): 7.8 mM/l and 7.9 mM/l and 14.2 mM/l (2×)
- Blood glucose level, mean ([1]; Tonogen + BMOV group, 200 min, after BMOV 4 (8.50 mg/kg, cumulative)): 7.28 mM/l
- Blood glucose level, individual animals in duplicate ([1]; Tonogen + BMOV group, 200 min, after BMOV 4 (8.50 mg/kg, cumulative), 8.5 mg/kg): 4.3 mM/l and 4.4 mM/l and 10.1 mM/l and 10.3 mM/l
- Effect on hyperglycemia compared to adrenaline+vehicle control group ([1]; adrenaline 1 μg/kg/min, at 160-180 min): significantly decreased hyperglycemia
- Effect of pretreatment on occurrence of hyperglycemia ([2]; BMOV 3 h before stress, or at 16-24 h and 3 h before stress (adrenaline infusion)): surprisingly high reduction of the occurrence of hyperglycemia
- Blood glucose, individual animals in duplicate [2, 10]: 6.1 mM/l and 6.7 mM/l and 5.1 mM/l and 4.9 mM/l and 6.3 mM/l and 5.9 mM/l
- Blood glucose, mean [2, 10]: 5.833 mM/l
- Blood glucose, individual animals in duplicate [2, 11]: 6.9 mM/l (2×) and 5.1 mM/l and 5.9 mM/l and 7.5 mM/l and 7.2 mM/l
- Blood glucose, mean [2, 11]: 6.583 mM/l
- Blood glucose, individual animals in duplicate [2, 12]: 8.4 mM/l and 8 mM/l and 6 mM/l (2×) and 9.7 mM/l and 10 mM/l
- Blood glucose, mean [2, 12]: 8.017 mM/l
- Blood glucose, individual animals in duplicate [2, 13]: 9.4 mM/l and 9.2 mM/l and 9.8 mM/l and 9.7 mM/l and 8.6 mM/l and 9 mM/l
- Blood glucose, mean [2, 13]: 9.283 mM/l
- Blood glucose, individual animals in duplicate [2, 14]: 10.7 mM/l and 11.2 mM/l and 12.2 mM/l and 11.5 mM/l and 4.6 mM/l and 4.7 mM/l
- Blood glucose, mean [2, 14]: 9.15 mM/l
- Blood glucose, individual animals in duplicate [2, 15]: 12.3 mM/l and 12.6 mM/l and 11.7 mM/l and 11.6 mM/l
- Blood glucose, mean [2, 15]: 12.05 mM/l
- Blood glucose, individual animals in duplicate [2, 16]: 12.4 mM/l and 12.2 mM/l and 11.9 mM/l (2×)
- Blood glucose, mean [2, 16]: 12.1 mM/l
- Blood glucose, individual animals in duplicate [2, 17]: 5.2 mM/l (2×) and 5.4 mM/l and 4.4 mM/l and 4.3 mM/l and 5.1 mM/l and 5.8 mM/l and 4.8 mM/l
- Blood glucose, mean [2, 17]: 5.025 mM/l
- Blood glucose, individual animals in duplicate [2, 18]: 5.2 mM/l and 4.8 mM/l and 5 mM/l (2×) and 5.3 mM/l (2×) and 6.3 mM/l and 6.1 mM/l
- Blood glucose, mean [2, 18]: 5.375 mM/l
- Blood glucose, individual animals in duplicate [2, 19]: 5.2 mM/l and 4.4 mM/l and 4.3 mM/l and 6.3 mM/l and 6.4 mM/l and 7.1 mM/l and 7 mM/l and 5.3 mM/l
- Blood glucose, mean [2, 19]: 5.75 mM/l
- Blood glucose, individual animals in duplicate [2, 20]: 5.8 mM/l (2×) and 3.4 mM/l and 3.2 mM/l and 6.4 mM/l and 6.8 mM/l and 8.5 mM/l and 8.2 mM/l
- Blood glucose, mean [2, 20]: 6.0125 mM/l
- Blood glucose, individual animals in duplicate [2, 21]: 6.7 mM/l (2×) and 2.7 mM/l and 2.6 mM/l and 7.4 mM/l and 7.7 mM/l and 9.1 mM/l and 8.6 mM/l
- Blood glucose, mean [2, 21]: 6.4375 mM/l
- Blood glucose, individual animals in duplicate [2, 22]: 7.4 mM/l and 1.4 mM/l and 1.3 mM/l and 7.7 mM/l (2×) and 7.9 mM/l and 7.6 mM/l and 7.5 mM/l
- Blood glucose, mean [2, 22]: 6.0625 mM/l
- Blood glucose, individual animals in duplicate [2, 23]: 6.7 mM/l and 7 mM/l and 6.8 mM/l and 4.6 mM/l and 4.8 mM/l and 6.9 mM/l
- Blood glucose, mean [2, 23]: 6.133 mM/l
- Effect on occurrence of hyperglycemia during the period of stress ([2]; first dose 16 to 24 h and second dose 3 h prior to stress): inhibited the occurrence of hyperglycemia
- Effect on extent of hyperglycemia during the period of stress ([2]; single dose of BMOV 3 h prior to stress): reduced the extent of hyperglycemia considerably
- Maximum average glucose level in the blood [2, 24]: about 6.4 mmol/l
- Rise in blood glucose level [2, 24]: ≤ 28%

— US20200246352A1, “Vanadyl and vanadate for use in reducing stress-induced metabolic derangement” (CFM Pharma Holding B.V., priority 2017, published 2020)
